Assay results published in PubChem BioAssay AID1845204 (Molecular Pharmacology Branch, DTP, NCI, 2023).

Tested on: HSSY-II tumor spheroid viability
Assay: Anticancer human tumor HSSY-II cell line growth inhibition;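 further: spheroids exposed to compounds for seven days before reading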;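 on viability, T/C: percent of DMSO vehicle control viability so 100% = untreated level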
Conditions: spheroids with HUVEC and MSC; for IC50: curve of first compound; for viability, T/C: stronger effect = lower value
In short: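 Complex tumor spheroids combined malignant cells with endothelial cells and mesenchymal stem cells. DNA-damaging drugs and DNA repair inhibitors were tested alone and in combination, at half-log dilutions down from clinical Cmax (top 10 microM if Cmax unknown), 0.25% DMSO final.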

[1] = second compound 30 pM, first compound 0.0316 µM
[2] = second compound 30 pM, first compound 0.1 µM
[3] = second compound 30 pM, first compound 0.316 µM
[4] = second compound 30 pM, first compound 1 µM
[5] = second compound 30 pM, first compound 3.16 µM
[6] = second compound 30 pM, first compound 10 µM
[7] = second compound 94.9 pM, first compound 0.0316 µM
[8] = second compound 94.9 pM, first compound 0.1 µM
[9] = second compound 94.9 pM, first compound 0.316 µM
[10] = second compound 94.9 pM, first compound 1 µM
[11] = second compound 94.9 pM, first compound 3.16 µM
[12] = second compound 94.9 pM, first compound 10 µM
[13] = second compound 0.0003 µM, first compound 0.0316 µM
[14] = second compound 0.0003 µM, first compound 0.1 µM
[15] = second compound 0.0003 µM, first compound 0.316 µM
[16] = second compound 0.0003 µM, first compound 1 µM
[17] = second compound 0.0003 µM, first compound 3.16 µM
[18] = second compound 0.0003 µM, first compound 10 µM
[19] = second compound 0.000949 µM, first compound 0.0316 µM
[20] = second compound 0.000949 µM, first compound 0.1 µM
[21] = second compound 0.000949 µM, first compound 0.316 µM
[22] = second compound 0.000949 µM, first compound 1 µM
[23] = second compound 0.000949 µM, first compound 3.16 µM
[24] = second compound 0.000949 µM, first compound 10 µM
[25] = second compound 0.003 µM, first compound 0.0316 µM
[26] = second compound 0.003 µM, first compound 0.1 µM
[27] = second compound 0.003 µM, first compound 0.316 µM
[28] = second compound 0.003 µM, first compound 1 µM
[29] = second compound 0.003 µM, first compound 3.16 µM
[30] = second compound 0.003 µM, first compound 10 µM

Row | Compound | IC50 (second compound 30 pM) [nM] | IC50 (second compound 94.9 pM) [nM] | IC50 (second compound 0.0003 µM) [nM] | IC50 (second compound 0.000949 µM) [nM] | IC50 (second compound 0.003 µM) [nM] | viability, T/C [1] [%] | viability, T/C [2] [%] | viability, T/C [3] [%] | viability, T/C [4] [%] | viability, T/C [5] [%] | viability, T/C [6] [%] | viability, T/C [7] [%] | viability, T/C [8] [%] | viability, T/C [9] [%] | viability, T/C [10] [%] | viability, T/C [11] [%] | viability, T/C [12] [%] | viability, T/C [13] [%] | viability, T/C [14] [%] | viability, T/C [15] [%] | also measured
1 | CC(C)n1c(=O)n(C)c2cnc3cc(F)c(-c4ccc(OCCCN5CCCCC5)nc4)cc3c21 + COc1cc2c(cc1O)CCNC21CSC2c3c(OC(C)=O)c(C)c4c(c3C(COC1=O)N1C(O)C3Cc5cc(C)c(OC)c(O)c5C(C21)N3C)OCO4 | > 10000 | 7160 | < 31.6 | < 31.6 | < 31.6 | 128 | 120 | 109 | 114 | 91.9 | 71.4 | 75.3 | 73.6 | 70 | 84.1 | 73.3 | 40.2 | 13.2 | 13.8 | 18 | viability, T/C [16]: 17.2%; viability, T/C [17]: 13.9%; viability, T/C [18]: 15.2%; viability, T/C [19]: 3.04%; viability, T/C [20]: 3.45%; viability, T/C [21]: 3.44%; viability, T/C [22]: 5.73%; viability, T/C [23]: 4.91%; viability, T/C [24]: 3.99%; viability, T/C [25]: 0.18%; viability, T/C [26]: 0.2%; viability, T/C [27]: 0.22%; viability, T/C [28]: 0.2%; viability, T/C [29]: 0.2%; viability, T/C [30]: 0.31%
2 | CC1COCCN1c1cc(-c2ccnn2C)c2ccnc(-c3ccn[nH]3)c2n1 (stereo not given) + COc1cc2c(cc1O)CCNC21CSC2c3c(OC(C)=O)c(C)c4c(c3C(COC1=O)N1C(O)C3Cc5cc(C)c(OC)c(O)c5C(C21)N3C)OCO4 | < 31.6 | < 31.6 | < 31.6 | < 31.6 | < 31.6 | 14.4 | 6.1 | 4.22 | 3.28 | 3.45 | 5.25 | 8.99 | 6.52 | 3.33 | 2.89 | 3.13 | 4.37 | 5.86 | 5.4 | 3.44 | viability, T/C [16]: 2.22%; viability, T/C [17]: 1.93%; viability, T/C [18]: 2.79%; viability, T/C [19]: 2.32%; viability, T/C [20]: 1.87%; viability, T/C [21]: 1.51%; viability, T/C [22]: 0.74%; viability, T/C [23]: 0.11%; viability, T/C [24]: 0.34%; viability, T/C [25]: 0.49%; viability, T/C [26]: 0.59%; viability, T/C [27]: 0.48%; viability, T/C [28]: 0.35%; viability, T/C [29]: 0.32%; viability, T/C [30]: 0.51%
3 | COc1cc(C)[nH]c(=O)c1CN1CCc2c(Cl)cc(C(OC)C3COC3)c(Cl)c2C1=O (stereo not given) + COc1cc2c(cc1O)CCNC21CSC2c3c(OC(C)=O)c(C)c4c(c3C(COC1=O)N1C(O)C3Cc5cc(C)c(OC)c(O)c5C(C21)N3C)OCO4 | > 10000 | > 10000 | < 31.6 | < 31.6 | < 31.6 | 132 | 117 | 108 | 92.5 | 86 | 90.1 | 121 | 99.9 | 97.8 | 89.7 | 81.4 | 70.8 | 20.1 | 15.3 | 19.4 | viability, T/C [16]: 23.8%; viability, T/C [17]: 21.3%; viability, T/C [18]: 19.3%; viability, T/C [19]: 3.35%; viability, T/C [20]: 3.82%; viability, T/C [21]: 3.22%; viability, T/C [22]: 4.24%; viability, T/C [23]: 4.87%; viability, T/C [24]: 4.39%; viability, T/C [25]: 0.33%; viability, T/C [26]: 0.35%; viability, T/C [27]: 0.32%; viability, T/C [28]: 0.3%; viability, T/C [29]: 0.32%; viability, T/C [30]: 0.52%
4 | COc1ccc([C@@H](O)c2cc(-c3ncnc4cc(N5CCOCC5)ccc34)c(F)cc2Cl)nn1 + COc1cc2c(cc1O)CCNC21CSC2c3c(OC(C)=O)c(C)c4c(c3C(COC1=O)N1C(O)C3Cc5cc(C)c(OC)c(O)c5C(C21)N3C)OCO4 | 1670 | 686 | < 31.6 | < 31.6 | < 31.6 | 117 | 114 | 93.3 | 67.1 | 29.7 | 6.65 | 101 | 93.8 | 75.6 | 38.6 | 7.08 | 1.86 | 16.7 | 10.5 | 7.96 | viability, T/C [16]: 3.36%; viability, T/C [17]: 0.77%; viability, T/C [18]: 0.17%; viability, T/C [19]: 2.36%; viability, T/C [20]: 2.67%; viability, T/C [21]: 0.85%; viability, T/C [22]: 0.08%; viability, T/C [23]: 0.11%; viability, T/C [24]: 0.22%; viability, T/C [25]: 0.22%; viability, T/C [26]: 0.26%; viability, T/C [27]: 0.22%; viability, T/C [28]: 0.24%; viability, T/C [29]: 0.25%; viability, T/C [30]: 0.34%
5 | Cc1cc(C)c(CNC(=O)c2cc(-c3ccc(CN4CCOCC4)cc3)cc3c2cnn3C2CCCC2)c(=O)[nH]1 + COc1cc2c(cc1O)CCNC21CSC2c3c(OC(C)=O)c(C)c4c(c3C(COC1=O)N1C(O)C3Cc5cc(C)c(OC)c(O)c5C(C21)N3C)OCO4 | > 10000 | 8460 | < 31.6 | < 31.6 | < 31.6 | 106 | 106 | 108 | 108 | 107 | 76.6 | 92.4 | 100 | 91.3 | 86 | 79.4 | 45.1 | 15.2 | 15.1 | 13.4 | viability, T/C [16]: 11.8%; viability, T/C [17]: 12.4%; viability, T/C [18]: 11.8%; viability, T/C [19]: 2.63%; viability, T/C [20]: 2.57%; viability, T/C [21]: 2.16%; viability, T/C [22]: 2.23%; viability, T/C [23]: 2.69%; viability, T/C [24]: 1.43%; viability, T/C [25]: 0.15%; viability, T/C [26]: 0.17%; viability, T/C [27]: 0.17%; viability, T/C [28]: 0.15%; viability, T/C [29]: 0.17%; viability, T/C [30]: 0.22%
6 | [2H]c1nc(C)nc([2H])c1-c1cc(NC[C@@H](C)c2cccc3c(C(=O)NC)ccnc23)ncn1 + COc1cc2c(cc1O)CCNC21CSC2c3c(OC(C)=O)c(C)c4c(c3C(COC1=O)N1C(O)C3Cc5cc(C)c(OC)c(O)c5C(C21)N3C)OCO4 | > 10000 | > 10000 | < 31.6 | < 31.6 | < 31.6 | 98 | 93.5 | 95.2 | 99.1 | 94.2 | 86.2 | 86.5 | 89 | 92.5 | 88.4 | 92.1 | 78.3 | 16.1 | 16 | 17.8 | viability, T/C [16]: 14.6%; viability, T/C [17]: 9.62%; viability, T/C [18]: 12%; viability, T/C [19]: 2.64%; viability, T/C [20]: 1.58%; viability, T/C [21]: 3.44%; viability, T/C [22]: 3.49%; viability, T/C [23]: 2.59%; viability, T/C [24]: 1.53%; viability, T/C [25]: 0.15%; viability, T/C [26]: 0.14%; viability, T/C [27]: 0.14%; viability, T/C [28]: 0.14%; viability, T/C [29]: 1.6%; viability, T/C [30]: 0.24%
